Reference: PubChem BioAssay (NCI)
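Protocol summary: plate cells (96-well), add compound at 5 concentrations, incubate 48 h, interpolate endpoints linearly. The concentration for 50% growth inhibition is given as GI50. TGI is the concentration that stops growth completely.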

Key:
Test in all cases: NCI tumour cell line growth inhibition, 48 h
[1] = test system: A549 NSCLC
[2] = test system: 786-0 renal
[3] = test system: T-47D breast
[4] = test system: HT29 colon
[5] = test system: PC-3 prostate
[6] = test system: MCF7 breast
[7] = test system: TK-10 renal
[8] = test system: SK-OV-3 ovarian
[9] = test system: NCI-H226 lung
[10] = test system: SK-MEL-2 melanoma
[11] = test system: SNB-19 CNS
[12] = test system: COLO 205 colon
[13] = test system: KM12 colon
[14] = test system: OVCAR-4 ovarian
[15] = test system: RPMI-8226 leukemia
[16] = test system: SF-295 CNS
[17] = test system: BT-549 breast
[18] = test system: NCI-H460 lung
[19] = test system: UACC-62 melanoma
[20] = test system: HL-60(TB) leukemia
[21] = test system: MDA-MB-231 breast
[22] = test system: NCI-H23 lung
[23] = test system: A498 renal
[24] = test system: MOLT-4 leukemia
[25] = test system: NCI/ADR-RES ovarian
[26] = test system: HS 578T breast
[27] = test system: EKVX NSCLC
[28] = test system: LOX IMVI melanoma
[29] = test system: SK-MEL-5 melanoma
[30] = test system: SN12C renal

O=C(COc1ccc(NC(=O)Nc2ccc(Cl)c(Cl)c2)cc1)N=Nc1c(O)[nH]c2ccccc12
GI50 [1]: 2.97 µM
TGI [1]: 8.33 µM
GI50 [2]: 2.69 µM
TGI [2]: 6.27 µM
GI50 [3]: 10.6 µM
TGI [3]: 25.2 µM
GI50 [4]: 1.97 µM
TGI [4]: 4 µM
GI50 [5]: 2.01 µM
TGI [5]: 6.24 µM
GI50 [6]: 2.49 µM
TGI [6]: 7.48 µM
GI50 [7]: 10.6 µM
TGI [7]: 28.6 µM
GI50 [8]: 3.28 µM
TGI [8]: 11.8 µM
GI50 [9]: 2.76 µM
TGI [9]: 10.8 µM
GI50 [10]: 12.1 µM
TGI [10]: 25.9 µM
GI50 [11]: 2.89 µM
TGI [11]: 10.5 µM
GI50 [12]: 2.19 µM
TGI [12]: 5.18 µM
GI50 [13]: 2.87 µM
TGI [13]: 11.2 µM
GI50 [14]: 2.47 µM
TGI [14]: 8.09 µM
GI50 [15]: 5.32 µM
TGI [15]: 29.8 µM
GI50 [16]: 2.23 µM
TGI [16]: 5.45 µM
GI50 [17]: 13.7 µM
TGI [17]: 29.7 µM
GI50 [18]: 1.84 µM
TGI [18]: 3.99 µM
GI50 [19]: 3.55 µM
TGI [19]: 13.8 µM
GI50 [20]: 20.8 µM
TGI [20]: 71.6 µM
GI50 [21]: 1.96 µM
TGI [21]: 4.7 µM
GI50 [22]: 2.91 µM
TGI [22]: 8.31 µM
GI50 [23]: 10.5 µM
TGI [23]: 23.2 µM
GI50 [24]: 3.67 µM
TGI [24]: 19.8 µM
GI50 [25]: > 100 µM
TGI [25]: > 100 µM
GI50 [26]: 3.06 µM
TGI [26]: 12 µM
GI50 [27]: 6.11 µM
TGI [27]: 28 µM
GI50 [28]: 2.79 µM
TGI [28]: 9.02 µM
GI50 [29]: 4.73 µM
TGI [29]: 16.7 µM
GI50 [30]: 1.77 µM
